Assay results reported in ChEMBL document CHEMBL1201862, “PubChem BioAssay data set” (2004).
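Tested at 5 concentrations; 48 h exposure; 96-well plates; endpoints linearly interpolated, else capped at highest concentration. GI50 marks 50% less growth.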 Activity calls are given as the source filed them. Rule as the data show it: active = GI50 up to about 1.1 µM and inactive = higher.

Key:
Assay in all cases: growth of human tumour cells (NCI), 48 h
ACHN = tested on: ACHN
HOP-62 = tested on: HOP-62
HOP-92 = tested on: HOP-92
HT-29 = tested on: HT-29
IGROV-1 = tested on: IGROV-1
M14 = tested on: M14
MDA-MB-231 = tested on: MDA-MB-231
MDA-N = tested on: MDA-N
Malme-3M = tested on: Malme-3M
NCI-H226 = tested on: NCI-H226
NCI/ADR-RES = tested on: NCI/ADR-RES
OVCAR-3 = tested on: OVCAR-3
OVCAR-4 = tested on: OVCAR-4
OVCAR-5 = tested on: OVCAR-5
OVCAR-8 = tested on: OVCAR-8
RXF 393 = tested on: RXF 393
SF-268 = tested on: SF-268
SW-620 = tested on: SW-620
U-251 = tested on: U-251
CCRF-CEM = tested on: CCRF-CEM

Measured: GI50

CC(C)(C)OC(=O)NCCCCC1NC(=O)[C@@H]2Cc3c([nH]c4ccccc34)C(C3CCCCC3)N2C1=O (stereo not given in full)
inactive: ACHN 45.6 µM | HOP-62 41.4 µM | HOP-92 26 µM | HT-29 28.1 µM | IGROV-1 56.5 µM | M14 22.9 µM | MDA-MB-231 31.6 µM | MDA-N 25.4 µM | Malme-3M > 100 µM | NCI-H226 75 µM | NCI/ADR-RES 57.9 µM | OVCAR-3 10.6 µM | OVCAR-4 35.8 µM | OVCAR-5 > 100 µM | OVCAR-8 43 µM | RXF 393 4.23 µM | SF-268 54.1 µM | SW-620 61.8 µM | U-251 31.5 µM

NS(=O)(=O)c1ccc(-c2ccc([As](=O)(O)O)cc2)cc1
inactive: ACHN > 100 µM | HOP-62 78.3 µM | HOP-92 > 100 µM | HT-29 > 100 µM | IGROV-1 > 100 µM | M14 > 100 µM | MDA-MB-231 > 100 µM | MDA-N > 100 µM | Malme-3M > 100 µM | NCI-H226 > 100 µM | NCI/ADR-RES > 100 µM | OVCAR-3 > 100 µM | OVCAR-4 > 100 µM | OVCAR-5 > 100 µM | OVCAR-8 > 100 µM | RXF 393 > 100 µM | SF-268 > 100 µM | SW-620 > 100 µM | U-251 > 100 µM

CCC(C)C1=C(OC(C)=O)[N+]2([O-])Oc3ccc(-c4c(OC(C)=O)c(OC(C)=O)c(-c5ccc(OC(C)=O)cc5)c(OC(C)=O)c4OC(C)=O)cc3OC2(C(C)CC)C(=O)N1OC(C)=O (stereo not given)
inactive: ACHN 19.6 µM | CCRF-CEM 9.57 µM | HT-29 19.9 µM | IGROV-1 11.5 µM | M14 20.1 µM | MDA-MB-231 40.3 µM | MDA-N 12.3 µM | Malme-3M 18.7 µM | NCI-H226 21.1 µM | NCI/ADR-RES > 50 µM | OVCAR-3 11.4 µM | OVCAR-4 16.5 µM | OVCAR-5 24 µM | OVCAR-8 22.4 µM | RXF 393 29.6 µM | SF-268 12.4 µM | SW-620 20.5 µM | U-251 23.8 µM

CN(C)c1ccc(/C=C(\NC(=O)c2ccccc2)C(=O)Nc2ccccc2C(=O)NN2C(=O)CSC2c2ccc(N(C)C)cc2)cc1 (stereo not given)
inactive: ACHN > 100 µM | CCRF-CEM > 100 µM | HOP-62 93.1 µM | HOP-92 > 100 µM | HT-29 > 100 µM | IGROV-1 > 100 µM | M14 > 100 µM | MDA-MB-231 > 100 µM | MDA-N > 100 µM | Malme-3M > 100 µM | NCI-H226 > 100 µM | NCI/ADR-RES > 100 µM | OVCAR-3 > 100 µM | OVCAR-5 > 100 µM | OVCAR-8 > 100 µM | RXF 393 86.3 µM | SF-268 > 100 µM | SW-620 > 100 µM | U-251 > 100 µM

N=C1OC(CN2CCN(c3ccccc3)CC2)CN1C(=O)Nc1ccccc1 (stereo not given)
inactive: ACHN > 100 µM | CCRF-CEM 43.3 µM | HOP-62 > 100 µM | HOP-92 > 100 µM | HT-29 > 100 µM | IGROV-1 > 100 µM | M14 > 100 µM | MDA-MB-231 > 100 µM | MDA-N > 100 µM | Malme-3M > 100 µM | NCI-H226 > 100 µM | NCI/ADR-RES > 100 µM | OVCAR-4 > 100 µM | OVCAR-5 > 100 µM | OVCAR-8 > 100 µM | RXF 393 > 100 µM | SF-268 > 100 µM | SW-620 > 100 µM | U-251 > 100 µM

Cc1ccc(S(=O)(=O)N(CCN2C(=O)c3ccccc3C2=O)c2cc3c4c(c2)Oc2cc(N(CCN5C(=O)c6ccccc6C5=O)S(=O)(=O)c5ccc(C)cc5)cc5c2C4(C)c2c(cc(N(CCN4C(=O)c6ccccc6C4=O)S(=O)(=O)c4ccc(C)cc4)cc2O5)O3)cc1
inactive: ACHN > 100 µM | CCRF-CEM > 100 µM | HOP-62 > 100 µM | HT-29 > 100 µM | IGROV-1 57.3 µM | M14 35.7 µM | MDA-MB-231 4.89 µM | MDA-N > 100 µM | NCI-H226 > 100 µM | NCI/ADR-RES > 100 µM | OVCAR-3 > 100 µM | OVCAR-4 > 100 µM | OVCAR-5 > 100 µM | OVCAR-8 > 100 µM | RXF 393 > 100 µM | SF-268 > 100 µM | SW-620 > 100 µM | U-251 > 100 µM

CCOC(=O)c1cc(Br)c(-c2onc(C)c2Br)n1C
inactive: ACHN 41.6 µM | CCRF-CEM 30.7 µM | HOP-62 35.6 µM | IGROV-1 59.8 µM | M14 40.6 µM | MDA-MB-231 24.2 µM | MDA-N 43 µM | Malme-3M 52.8 µM | NCI-H226 55.2 µM | NCI/ADR-RES 37.2 µM | OVCAR-3 31.6 µM | OVCAR-4 38.5 µM | OVCAR-5 19.4 µM | OVCAR-8 63.4 µM | RXF 393 10.2 µM | SF-268 75 µM | SW-620 49.7 µM | U-251 43.1 µM
